# In patent US20160287589A1, “SUBSTITUTED-IMIDAZOPYRIDAZINES” (BAYER PHARMA AKTIENGESELLSCHAFT, priority 2013, published 2016):
# Columns and labels:
# MKNK1 [1] = molecular target: T1, MKNK1 (Homo sapiens, UniProt Q9BUB5, T385D); test: MKNK1 kinase assay (MKNK1 TR-FRET assay); format: biochemical; details: 10 μM ATP, 15 min preincubation
# T1 construct: GST (N); purchased Carna Biosciences 02-145; host or cells: insect cells (baculovirus expression system)
# MKNK1 [2] = molecular target: T1, MKNK1; test: MKNK1 kinase high ATP assay (TR-FRET-based); format: biochemical; details: 2 mM ATP, 15 min preincubation
# How it was run: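 GST-tagged full-length human MKNK1 (aa 1-424, T344D) from insect cells, preincubated with compound 15 min at 22 °C. Reaction 30 min at 22 °C with 2 mM ATP and 0.06 μM biotinylated peptide in HEPES pH 7.5, Mg2+, DTT. Phosphopeptide detected by TR-FRET (665/622 ratio) with anti-pS6 (pSer236) antibody; normalised to no-inhibitor and no-enzyme controls.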
# T1 sequence (Q9BUB5 1-424 isoform Q9BUB5-2 T344D): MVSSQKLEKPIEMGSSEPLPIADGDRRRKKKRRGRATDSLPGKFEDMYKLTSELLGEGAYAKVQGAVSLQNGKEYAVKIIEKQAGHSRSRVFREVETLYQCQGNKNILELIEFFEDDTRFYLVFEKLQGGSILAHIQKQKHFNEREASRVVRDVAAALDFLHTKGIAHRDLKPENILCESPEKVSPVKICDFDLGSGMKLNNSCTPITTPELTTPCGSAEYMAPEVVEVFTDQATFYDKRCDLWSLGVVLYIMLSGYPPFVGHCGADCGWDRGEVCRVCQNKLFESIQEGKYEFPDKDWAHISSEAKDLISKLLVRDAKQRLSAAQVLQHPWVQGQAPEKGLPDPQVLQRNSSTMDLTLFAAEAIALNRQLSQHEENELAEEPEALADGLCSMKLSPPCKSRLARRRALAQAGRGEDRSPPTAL
smiles,measurement,setting,value
"C[C@H]1COCCN1c1cccc2oc(-c3cnc4ccc(O[C@H]5C[C@H](N)C5)nn34)cc12 [II-34, trans-3-[(3-{4-[(3S)-3-methylmorpholin-4-yl]-1-benzofuran-2-yl}imidazo[1,2-b]pyridazin-6-yl)oxy]cyclobutanamine]",IC50,MKNK1 [1]; Table 1b,26.7 nM
same,IC50,MKNK1 [2]; Table 2b,43.2 nM
"O=C(c1ccco1)N1CCC[C@H]1CCOc1ccc2ncc(-c3cc4ccccc4o3)n2n1 [Example I-49, [(2S)-2-(2-{[3-(1-Benzofuran-2-yl)imidazo[1,2-b]-pyridazin-6-yl]oxy}ethyl)pyrrolidin-1-yl](furan-2-yl)methanone]",IC50,MKNK1 [1]; Table 1a,1.1 nM
same,IC50,MKNK1 [2]; Table 2a,2.4 nM
"C[C@H]1CNCCN1c1cccc2oc(-c3cnc4ccc(OCC(F)(F)F)nn34)cc12 [II-29, 3-{4-[(2S)-2-methylpiperazin-1-yl]-1-benzofuran-2-yl}-6-(2,2,2-trifluoroethoxy)im-idazo[1,2-b]pyridazine]",IC50,MKNK1 [1]; Table 1b,5.4 nM
same,IC50,MKNK1 [2]; Table 2b,2.7 nM
"C[C@@H]1CNCCN1c1cccc2oc(-c3cnc4ccc(OCCCS(C)(=O)=O)nn34)cc12 [II-45, 3-{4-[(2R)-2-methylpiperazin-1-yl]-1-benzofuran-2-yl}-6-[3-(methylsulfonyl)pro-poxy]imidazo[1,2-b]pyri-dazine]",IC50,MKNK1 [1]; Table 1b,5.7 nM
same,IC50,MKNK1 [2]; Table 2b,5.9 nM
"CC(C)CC(=O)N1CCC[C@H]1CCOc1ccc2ncc(-c3cc4ccccc4o3)n2n1 [Example I-60, 1-[(2S)-2-(2-{[3-(1-Benzofuran-2-yl)imidazo[1,2-b]-pyridazin-6-yl]oxy}ethyl)pyrrolidin-1-yl]-3-methylbutan-1-one]",IC50,MKNK1 [1]; Table 1a,2.2 nM
same,IC50,MKNK1 [2]; Table 2a,5.4 nM
"O=C(CO)NCCOc1ccc2ncc(-c3cc4ccccc4o3)n2n1 [Example I-67, N-(2-{[3-(1-Benzofuran-2-yl)imidazo[1,2-b]-pyridazin-6-yl]oxy}ethyl)-2-hydroxyacetamide]",IC50,MKNK1 [1]; Table 1a,6.6 nM
same,IC50,MKNK1 [2]; Table 2a,20.3 nM
"c1cc2oc(-c3cnc4ccc(OC[C@H]5CCCCN5)nn34)cc2c(N2CCOCC2)n1 (stereo in doubt) [III-140, 3-[4-(morpholin-4-yl)furo[3,2-c]pyridin-2-yl]-6-(piperidin-2-ylmeth-oxy)imidazo[1,2-b]pyridazine]",IC50,MKNK1 [1]; Table 1c,80 nM
same,IC50,MKNK1 [2]; Table 2c,183 nM
"O=C1CCCN1CCCOc1ccc2ncc(-c3cc4ccccc4o3)n2n1 [Example I-22, 1-(3-{[3-(1-Benzofuran-2-yl)imidazo[1,2-b]pyridazin-6-yl]oxy}propyl)pyrrolidin-2-one]",IC50,MKNK1 [1]; Table 1a,12.6 nM
same,IC50,MKNK1 [2]; Table 2a,18.6 nM
"c1cc2oc(-c3cnc4ccc(OC[C@@H]5COCCN5)nn34)cc2c(N2CCOCC2)n1 [III-36, 3-[4-(Morpholin-4-yl)furo[3,2-c]pyridin-2-yl]-6-[(3S)-morpholin-3-ylmethoxy]imidazo[1,2-b]pyridazine]",IC50,MKNK1 [1]; Table 1c,11.6 nM
same,IC50,MKNK1 [2]; Table 2c,37.3 nM
"C[C@H]1COCCN1c1cccc2oc(-c3cnc4ccc(OC[C@H]5CCC(=O)N5)nn34)cc12 [II-32, (5R)-5-{[(3-{4-[(3S)-3-methylmorpholin-4-yl]-1-benzofuran-2-yl}imidazo[1,2-b]pyridazin-6-yl)oxy]methyl}pyrrolidin-2-one]",IC50,MKNK1 [1]; Table 1b,4.4 nM
same,IC50,MKNK1 [2]; Table 2b,8.1 nM
"CC(=O)N1CCOC(COc2ccc3ncc(-c4cc5ccccc5o4)n3n2)C1 (stereo not shown) [Example I-27, 1-[2-({[3-(1-Benzofuran-2-yl)imidazo[1,2-b]pyridazin-6-yl]oxy}methyl)-morpholin-4-yl]ethanone]",IC50,MKNK1 [1]; Table 1a,7.3 nM
same,IC50,MKNK1 [2]; Table 2a,23.5 nM
"O=C1NCCN1CCOc1ccc2ncc(-c3cc4ccccc4o3)n2n1 [Example I-18, 1-(2-{[3-(1-Benzofuran-2-yl)imidazo[1,2-b]pyridazin-6-yl]oxy}ethyl)-imidazolidin-2-one]",IC50,MKNK1 [1]; Table 1a,7.1 nM
same,IC50,MKNK1 [2]; Table 2a,13.8 nM
"CCCN(CCOC)c1nccc2oc(-c3cnc4ccc(OC[C@H]5CCC(=O)N5)nn34)cc12 [III-82, (5R)-5-{[(3-{4-[(2-Methoxyethyl)(propyl)amino]furo[3,2-c]pyridin-2-yl}imidazo[1,2-b]pyridazin-6-yl)oxy]methyl}pyrrolidin-2-one]",IC50,MKNK1 [1]; Table 1c,0.4 nM
same,IC50,MKNK1 [2]; Table 2c,0.3 nM
"COC[C@H]1CCCN1c1cccc2oc(-c3cnc4ccc(OC)nn34)cc12 [II-10, 6-Methoxy-3-{4-[(2R)-2-(methoxymethyl)pyrrolidin-1-yl]-1-benzofuran-2-yl}-imidazo[1,2-b]pyridazine]",IC50,MKNK1 [1]; Table 1b,6.5 nM
same,IC50,MKNK1 [2]; Table 2b,5 nM
"COC[C@H]1CCCN1c1cccc2oc(-c3cnc4ccc(OC[C@H](C)N)nn34)cc12 [II-8, (2S)-1-[(3-{4-[(2R)-2-(Methoxymethyl)pyrrolidin-1-yl]-1-benzofuran-2-yl}-imidazo[1,2-b]pyridazin-6-yl)oxy]propan-2-amine]",IC50,MKNK1 [1]; Table 1b,2 nM
same,IC50,MKNK1 [2]; Table 2b,2.7 nM
"CN(C)[C@@H]1CCN(c2nccc3oc(-c4cnc5ccc(OCCCS(C)(=O)=O)nn45)cc23)C1 [III-46, (3R)—N,N-Dimethyl-1-(2-{6-[3-(methylsulfonyl)propoxy]imidazo[1,2-b]pyridazin-3-yl}furo[3,2-c]pyridin-4-yl)pyrrolidin-3-amine]",IC50,MKNK1 [1]; Table 1c,3.9 nM
same,IC50,MKNK1 [2]; Table 2c,3.6 nM
"CC(C)(C)COc1nccc2oc(-c3cnc4ccc(OC[C@H]5CCC(=O)N5)nn34)cc12 [IV-5, (5R)-5-[({3-[4-(2,2-Dimethylpropoxy)furo[3,2-c]pyridin-2-yl]imidazo[1,2-b]-pyridazin-6-yl}oxy)methyl]pyrrolidin-2-one]",IC50,MKNK1 [1]; Table 1d,2 nM
same,IC50,MKNK1 [2]; Table 2d,4 nM
"CN1CCN(c2cccc3oc(-c4cnc5ccc(OC[C@H]6CCC(=O)N6)nn45)cc23)CC1 [II-18, (5R)-5-[({3-[4-(4-Methylpiperazin-1-yl)-1-benzofuran-2-yl]imidazo[1,2-b]-pyridazin-6-yl}oxy)methyl]pyrrolidin-2-one]",IC50,MKNK1 [1]; Table 1b,0.4 nM
same,IC50,MKNK1 [2]; Table 2b,0.4 nM
"O=C(CC1CC1)NCCOc1ccc2ncc(-c3cc4ccccc4o3)n2n1 [Example I-76, N-(2-{[3-(1-Benzofuran-2-yl)imidazo[1,2-b]-pyridazin-6-yl]oxy}ethyl)-2-cyclopropylacetamide]",IC50,MKNK1 [1]; Table 1a,7.3 nM
same,IC50,MKNK1 [2]; Table 2a,21.1 nM
"CC(Oc1ccc2ncc(-c3cc4ccccc4o3)n2n1)C(N)=O (stereo not shown) [Example I-25, 2-{[3-(1-Benzofuran-2-yl)imidazo[1,2-b]pyridazin-6-yl]oxy}propanamide]",IC50,MKNK1 [1]; Table 1a,4.7 nM
same,IC50,MKNK1 [2]; Table 2a,20.8 nM
"CCCCC(=O)NCCOc1ccc2ncc(-c3cc4ccccc4o3)n2n1 [Example I-74, N-(2-{[3-(1-Benzofuran-2-yl)imidazo[1,2-b]-pyridazin-6-yl]oxy}ethyl)pentanamide]",IC50,MKNK1 [1]; Table 1a,5.4 nM
same,IC50,MKNK1 [2]; Table 2a,16.7 nM
"COc1ccc2ncc(-c3cc4c(N5CCN[C@H](C)C5)nccc4o3)n2n1 [III-144, 6-methoxy-3-{4-[(3R)-3-methylpiperazin-1-yl]furo[3,2-c]pyridin-2-yl}imidazo[1,2-b]pyridazine]",IC50,MKNK1 [1]; Table 1c,4.6 nM
same,IC50,MKNK1 [2]; Table 2c,6.7 nM
"O=C(NCCOc1ccc2ncc(-c3cc4ccccc4o3)n2n1)C1CCCO1 (stereo not shown) [Example I-78, N-(2-{[3-(1-Benzofuran-2-yl)imidazo[1,2-b]-pyridazin-6-yl]oxy}ethyl)tetrahydrofuran-2-carboxamide]",IC50,MKNK1 [1]; Table 1a,6.7 nM
same,IC50,MKNK1 [2]; Table 2a,23 nM
"O=C1CC[C@H](COc2ccc3ncc(-c4cc5ccccc5o4)n3n2)N1 [Example I-9, (5R)-5-({[3-(1-Benzofuran-2-yl)imidazo[1,2-b]pyridazin-6-yl]oxy}methyl)-pyrrolidin-2-one]",IC50,MKNK1 [1]; Table 1a,3.3 nM
same,IC50,MKNK1 [2]; Table 2a,9.6 nM
"COc1nccc2oc(-c3cnc4ccc(OC[C@@H]5CCC(=O)N5)nn34)cc12 [IV-3, (5S)-5-({[3-(4-Methoxyfuro[3,2-c]pyridin-2-yl)imidazo[1,2-b]pyridazin-6-yl]-oxy}methyl)pyrrolidin-2-one]",IC50,MKNK1 [1]; Table 1d,10 nM
same,IC50,MKNK1 [2]; Table 2d,28 nM
"COc1ccc2ncc(-c3cc4c(N5CCNC(C)(C)C5)nccc4o3)n2n1 [III-130, 3-[4-(3,3-dimethylpiperazin-1-yl)furo[3,2-c]pyridin-2-yl]-6-methoxy-imidazo[1,2-b]pyridazine]",IC50,MKNK1 [1]; Table 1c,5.3 nM
same,IC50,MKNK1 [2]; Table 2c,1.5 nM
"CCN(CCO)c1nccc2oc(-c3cnc4ccc(OC[C@@H]5COCCN5)nn34)cc12 [III-40, 2-[Ethyl(2-{6-[(3S)-morpholin-3-ylmethoxy]imidazo[1,2-b]pyridazin-3-yl}furo[3,2-c]pyridin-4-yl)amino]ethanol]",IC50,MKNK1 [1]; Table 1c,1.5 nM
same,IC50,MKNK1 [2]; Table 2c,2.6 nM
"COc1ccc2ncc(-c3cc4c(N5CCO[C@H](C)C5)nccc4o3)n2n1 [III-120, 6-methoxy-3-{4-[(2R)-2-methylmorpholin-4-yl]furo[3,2-c]pyridin-2-yl}imidazo[1,2-b]pyridazine]",IC50,MKNK1 [1]; Table 1c,11.2 nM
same,IC50,MKNK1 [2]; Table 2c,7.4 nM
"O=C(NCCOc1ccc2ncc(-c3cc4ccccc4o3)n2n1)c1cccs1 [Example I-64, N-(2-{[3-(1-Benzofuran-2-yl)imidazo[1,2-b]-pyridazin-6-yl]oxy}ethyl)thiophene-2-carboxamide]",IC50,MKNK1 [1]; Table 1a,4.7 nM
same,IC50,MKNK1 [2]; Table 2a,10.5 nM
"COc1ccc2ncc(-c3cc4c(N5CCNCC5)cccc4o3)n2n1 [II-21, 6-Methoxy-3-[4-(piperazin-1-yl)-1-benzofuran-2-yl]imidazo[1,2-b]pyridazine]",IC50,MKNK1 [1]; Table 1b,0.3 nM
same,IC50,MKNK1 [2]; Table 2b,0.3 nM
"CC(C)(C)C(=O)N1CCC[C@H]1CCOc1ccc2ncc(-c3cc4ccccc4o3)n2n1 [Example I-46, 1-[(2S)-2-(2-{[3-(1-Benzofuran-2-yl)imidazo[1,2-b]-pyridazin-6-yl]oxy}ethyl)pyrrolidin-1-yl]-2,2-dimethylpropan-1-one]",IC50,MKNK1 [1]; Table 1a,1.2 nM
same,IC50,MKNK1 [2]; Table 2a,1.9 nM
"CC1(C)CN(c2cccc3oc(-c4cnc5ccc(OC[C@H]6CCC(=O)N6)nn45)cc23)CCO1 [II-74, (5R)-5-[({3-[4-(2,2-dimethylmorpholin-4-yl)-1-benzofuran-2-yl]imidazo[1,2-b]pyridazin-6-yl}oxy)methyl]pyrrolidin-2-one]",IC50,MKNK1 [1]; Table 1b,4.1 nM
same,IC50,MKNK1 [2]; Table 2b,11.2 nM
